{"source": "the NIST ThermoML archive (doi:10.1021/je600518s)", "settings": "Liquid, Ebulliometric method (Recirculating still)", "note": "Numbers after ± are expanded uncertainties.", "data": [{"molecule": "COC(C)=O", "note": "[methyl ethanoate]", "values": [{"measurement": "vapor or sublimation pressure", "setting": "304 K", "result": "37.14 ± 0.19", "unit": "kPa"}, {"measurement": "vapor or sublimation pressure", "setting": "306 K", "result": "40.4 ± 0.21", "unit": "kPa"}, {"measurement": "vapor or sublimation pressure", "setting": "308 K", "result": "43.89 ± 0.22", "unit": "kPa"}, {"measurement": "vapor or sublimation pressure", "setting": "310 K", "result": "47.62 ± 0.24", "unit": "kPa"}, {"measurement": "vapor or sublimation pressure", "setting": "312 K", "result": "51.6 ± 0.26", "unit": "kPa"}, {"measurement": "vapor or sublimation pressure", "setting": "314 K", "result": "55.85 ± 0.28", "unit": "kPa"}, {"measurement": "vapor or sublimation pressure", "setting": "316 K", "result": "60.38 ± 0.31", "unit": "kPa"}, {"measurement": "vapor or sublimation pressure", "setting": "318 K", "result": "65.21 ± 0.33", "unit": "kPa"}, {"measurement": "vapor or sublimation pressure", "setting": "320 K", "result": "70.34 ± 0.36", "unit": "kPa"}, {"measurement": "vapor or sublimation pressure", "setting": "322 K", "result": "75.79 ± 0.39", "unit": "kPa"}, {"measurement": "vapor or sublimation pressure", "setting": "324 K", "result": "81.58 ± 0.41", "unit": "kPa"}, {"measurement": "vapor or sublimation pressure", "setting": "326 K", "result": "87.72 ± 0.45", "unit": "kPa"}, {"measurement": "vapor or sublimation pressure", "setting": "328 K", "result": "94.23 ± 0.48", "unit": "kPa"}, {"measurement": "vapor or sublimation pressure", "setting": "330 K", "result": "101.12 ± 0.51", "unit": "kPa"}, {"measurement": "vapor or sublimation pressure", "setting": "332 K", "result": "108.41 ± 0.55", "unit": "kPa"}, {"measurement": "vapor or sublimation pressure", "setting": "334 K", "result": "116.11 ± 0.59", "unit": "kPa"}, {"measurement": "vapor or sublimation pressure", "setting": "336 K", "result": "124.25 ± 0.63", "unit": "kPa"}, {"measurement": "vapor or sublimation pressure", "setting": "338 K", "result": "132.83 ± 0.67", "unit": "kPa"}]}]}
